Measured values: patent publication US9056874B2, “Complement pathway modulators and uses thereof” (NOVARTIS AG, priority 2012, dated 2015)

Molecular target: factor B (Homo sapiens, UniProt P00751)
Assay: factor B inhibition assay of Biological Example 1
Assay type: biochemical
Parameters: CVF-Bb complex prepared from purified cobra venom factor (1 μM), recombinant human complement factor B; made in house; host or cells: drosophila cells (factor B); E. coli (factor D used to form the complex)
Conditions: IC50 (nM), assay of Biological Example 1 (Table 1)

Sequence of factor B (P00751 260-764 limits assumed): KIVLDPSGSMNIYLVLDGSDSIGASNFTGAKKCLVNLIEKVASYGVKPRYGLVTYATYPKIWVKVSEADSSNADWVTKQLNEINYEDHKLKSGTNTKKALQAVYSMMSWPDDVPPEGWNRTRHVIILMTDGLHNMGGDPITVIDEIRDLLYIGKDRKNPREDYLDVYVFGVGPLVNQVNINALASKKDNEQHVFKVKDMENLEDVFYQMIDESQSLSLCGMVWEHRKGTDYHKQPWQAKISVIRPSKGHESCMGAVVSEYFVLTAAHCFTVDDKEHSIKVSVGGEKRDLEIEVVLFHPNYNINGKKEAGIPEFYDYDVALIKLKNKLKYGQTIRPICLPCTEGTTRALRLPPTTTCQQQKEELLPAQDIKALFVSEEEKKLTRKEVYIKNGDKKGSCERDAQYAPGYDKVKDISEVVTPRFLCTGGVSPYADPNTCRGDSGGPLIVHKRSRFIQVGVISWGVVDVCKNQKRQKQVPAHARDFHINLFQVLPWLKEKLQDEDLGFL
Sequence of factor B (Q91132 23-649 partner limits assumed): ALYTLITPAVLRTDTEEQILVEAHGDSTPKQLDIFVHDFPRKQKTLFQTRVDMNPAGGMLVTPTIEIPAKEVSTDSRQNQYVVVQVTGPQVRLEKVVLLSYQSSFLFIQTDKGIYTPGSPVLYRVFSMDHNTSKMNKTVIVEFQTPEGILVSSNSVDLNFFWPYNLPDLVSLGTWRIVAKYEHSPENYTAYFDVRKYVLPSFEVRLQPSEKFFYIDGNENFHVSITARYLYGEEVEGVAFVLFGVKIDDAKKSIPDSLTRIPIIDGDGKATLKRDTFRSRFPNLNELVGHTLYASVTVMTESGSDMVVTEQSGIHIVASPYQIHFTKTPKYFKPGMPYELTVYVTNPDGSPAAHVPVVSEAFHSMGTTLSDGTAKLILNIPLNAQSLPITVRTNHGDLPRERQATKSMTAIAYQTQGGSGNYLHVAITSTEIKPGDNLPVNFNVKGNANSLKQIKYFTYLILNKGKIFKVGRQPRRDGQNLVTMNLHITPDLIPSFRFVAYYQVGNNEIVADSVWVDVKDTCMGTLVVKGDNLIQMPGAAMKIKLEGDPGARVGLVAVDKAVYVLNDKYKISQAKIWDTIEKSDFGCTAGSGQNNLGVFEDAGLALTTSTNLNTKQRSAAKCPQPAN
Sequence of factor B (Q91132 733-984 partner limits assumed): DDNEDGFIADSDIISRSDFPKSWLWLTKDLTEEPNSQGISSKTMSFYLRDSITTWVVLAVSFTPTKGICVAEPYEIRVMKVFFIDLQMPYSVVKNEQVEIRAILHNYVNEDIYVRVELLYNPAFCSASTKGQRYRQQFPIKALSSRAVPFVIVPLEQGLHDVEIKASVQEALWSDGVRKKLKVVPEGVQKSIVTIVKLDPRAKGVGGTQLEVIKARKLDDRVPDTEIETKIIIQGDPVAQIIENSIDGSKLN
Sequence of factor B (Q91132 1264-1642 partner limits assumed): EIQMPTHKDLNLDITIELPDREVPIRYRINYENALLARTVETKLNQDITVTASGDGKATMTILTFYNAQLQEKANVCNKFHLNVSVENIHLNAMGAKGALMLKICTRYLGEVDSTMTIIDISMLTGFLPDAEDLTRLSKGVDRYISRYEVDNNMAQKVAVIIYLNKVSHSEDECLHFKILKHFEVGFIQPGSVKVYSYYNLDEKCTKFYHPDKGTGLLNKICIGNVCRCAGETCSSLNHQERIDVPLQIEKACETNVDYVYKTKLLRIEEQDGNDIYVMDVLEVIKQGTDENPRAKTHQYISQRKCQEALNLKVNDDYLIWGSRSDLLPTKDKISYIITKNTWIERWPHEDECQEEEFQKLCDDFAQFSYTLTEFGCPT

Compound	IC50 [nM]
Cc1cc(OC(F)F)c(C(O)c2nc3cc(C#N)ccc3[nH]2)c2cc[nH]c12 (single isomer, unassigned; (+)) [3-B b) (+), (+)-2-((5-(difluoromethoxy)-7-methyl-1H-indol-4-yl)(hydroxy)methyl)-1H-benzo[d]imidazole-5-carbonitrile]	820
CCOc1cc(C)c2[nH]ccc2c1C(O)(c1nc2cc(C#N)ccc2[nH]1)C(F)(F)F (single isomer, unassigned) [33-C b) (tr = 3 min), 2-(1-(5-ethoxy-7-methyl-1H-indol-4-yl)-2,2,2-trifluoro-1-hydroxyethyl)-1H-benzo[d]imidazole-5-carbonitrile]	490
Cc1cc(S(C)(=O)=O)c(C(C)(O)c2nc3cc(C#N)ccc3[nH]2)c2cc[nH]c12 (single isomer, unassigned) [11-C b) (tr = 3 min), (+) or (−)-2-(1-hydroxy-1-(7-methyl-5-(methylsulfonyl)-1H-indol-4-yl)ethyl)-1H-benzo[d]imidazole-5-carbonitrile]	90
Cc1cc(S(C)(=O)=O)c(C(O)c2nc3cc(C#N)ccc3[nH]2)c2cc[nH]c12 (racemic) [Example 10-C, (±)-2-(Hydroxy(7-methyl-5-(methylsulfonyl)-1H-indol-4-yl)methyl)-1H-benzo[d]imidazole-5-carbonitrile]	1360
Cc1cc(C)c2[nH]ccc2c1Cc1nc2cc(C#N)cc(F)c2[nH]1 [Example 62-B, 2-((5,7-Dimethyl-1H-indol-4-yl)methyl)-7-fluoro-1H-benzo[d]imidazole-5-carbonitrile]	7610
COc1cc(C)c2[nH]ccc2c1C(O)(c1nc2cc(C#N)ccc2o1)C(F)(F)F (single isomer, unassigned; (-)) [128-B b) (−), (−)-2-(2,2,2-trifluoro-1-hydroxy-1-(5-methoxy-7-methyl-1H-indol-4-yl)ethyl)benzo[d]oxazole-5-carbonitrile]	3
COC(c1nc2cc(C#N)ccc2[nH]1)c1c(C)cc(C)c2[nH]ccc12 (racemic) [Example 68-B, (±)-2-((5,7-Dimethyl-1H-indol-4-yl)(methoxy)methyl)-1H-benzo[d]imidazole-5-carbonitrile]	200
COCc1cc(C)c2[nH]ccc2c1Cc1nc2cc(C#N)ccc2[nH]1 [Example 63-D]	1100
Cc1cc(OC(F)F)c(C(NCCN)c2nc3cc(C#N)ccc3[nH]2)c2cc[nH]c12 (racemic) [3-B a) 2nd compound, (±)-2-(((2-aminoethyl)amino)(5-(difluoromethoxy)-7-methyl-1H-indol-4-yl)methyl)-1H-benzo[d]imidazole-5-carbonitrile]	2700
CNC(c1nc2cc(C#N)ccc2[nH]1)(c1c(C2CC2)cc(C)c2[nH]ccc12)C(F)(F)F (single isomer, unassigned; (+)) [107-E b) (+), (+)-2-(1-(5-cyclopropyl-7-methyl-1H-indol-4-yl)-2,2,2-trifluoro-1-(methylamino)ethyl)-1H-benzo[d]imidazole-5-carbonitrile]	240
Cc1cc(C2CC2)c(C(N)(c2nc3cc(C#N)ccc3[nH]2)C(F)(F)F)c2cc[nH]c12 (single isomer, unassigned; (+)) [107-D b) (+), (+)-2-(1-amino-1-(5-cyclopropyl-7-methyl-1H-indol-4-yl)-2,2,2-trifluoroethyl)-1H-benzo[d]imidazole-5-carbonitrile]	50
COc1cc2[nH]c(Cc3c(C)cc(C)c4[nH]ccc34)nc2cc1C#N [Example 63-J]	83200
Cc1cc(C(F)(F)F)c(C(C)(O)c2nc3cc(C#N)ccc3[nH]2)c2cc[nH]c12 (racemic) [Example 83-B, (±)-2-(1-hydroxy-1-(7-methyl-5-(trifluoromethyl)-1H-indol-4-yl)ethyl)-1H-benzo[d]imidazole-5-carbonitrile]	1440
Cc1cc(OC(C)C)c(C(O)c2nc3cc(C#N)ccc3[nH]2)c2cc[nH]c12 (single isomer, unassigned; (-)) [24-D b) (−), (−)-2-(hydroxy(5-isopropoxy-7-methyl-1H-indol-4-yl)methyl)-1H-benzo[d]imidazole-5-carbonitrile]	490
CNC(c1nc2cc(C#N)ccc2[nH]1)(c1c(OC)cc(C)c2[nH]ccc12)C(F)(F)F (single isomer, unassigned; (-)) [38-B b) (−), (−)-2-(2,2,2-trifluoro-1-(5-methoxy-7-methyl-1H-indol-4-yl)-1-(methylamino)ethyl)-1H-benzo[d]imidazole-5-carbonitrile]	8
Cc1cc(C2CC2)c(C(C)(O)c2nc3cc(C#N)ccc3[nH]2)c2cc[nH]c12 (single isomer, unassigned; (+)) [79-C b) (+), (+)-2-(1-(5-cyclopropyl-7-methyl-1H-indol-4-yl)-1-hydroxyethyl)-1H-benzo[d]imidazole-5-carbonitrile]	8
CCOc1cc(C)c2[nH]ccc2c1C(O)c1nc2cc(C#N)ccc2[nH]1 (single isomer, unassigned; (-)) [24-C b) (−), (−)-2-((5-ethoxy-7-methyl-1H-indol-4-yl)(hydroxy)methyl)-1H-benzo[d]imidazole-5-carbonitrile]	600

Compound	IC50 [nM]
COc1cc(C)c2[nH]ccc2c1Cc1nc2ccc(C#N)cc2o1 [Example 20-H]	4370
CNC(c1nc2cc(C#N)ccc2[nH]1)(c1c(Br)cc(C)c2[nH]ccc12)C(F)(F)F (single isomer, unassigned; (+)) [106 b) (+), (+)-2-(1-(5-bromo-7-methyl-1H-indol-4-yl)-2,2,2-trifluoro-1-(methylamino)ethyl)-1H-benzo[d]imidazole-5-carbonitrile]	150
CCc1cc(C)c2[nH]ccc2c1C(C)(OC)c1nc2cc(C#N)ccc2[nH]1 (single isomer, unassigned; (+)) [84-C b) (+), (+)-2-(1-(5-ethyl-7-methyl-1H-indol-4-yl)-1-methoxyethyl)-1H-benzo[d]imidazole-5-carbonitrile]	150
COc1cc(C)c2[nH]ccc2c1C(=O)c1nc2cc(C#N)ccc2[nH]1 [Example 25-B, 2-(5-Methoxy-7-methyl-1H-indole-4-carbonyl)-1H-benzo[d]imidazole-5-carbonitrile]	810
CCc1cc(C)c2[nH]ccc2c1C(O)(c1nc2cc(C#N)ccc2[nH]1)C(F)(F)F (single isomer, unassigned; (+)) [80-C b) (+), (+)-2-(1-(5-ethyl-7-methyl-1H-indol-4-yl)-2,2,2-trifluoro-1-hydroxyethyl)-1H-benzo[d]imidazole-5-carbonitrile]	380
Cc1cc(C)c2[nH]ccc2c1C(C)(O)c1nc2cc(C#N)ccc2[nH]1 (single isomer, unassigned; (-)) [76-B b) (−), (−)-2-(1-(5,7-Dimethyl-1H-indol-4-yl)-1-hydroxyethyl)-1H-benzo[d]imidazole-5-carbonitrile]	190
Cc1cc(OC(F)F)c(C(C)(N)c2nc3cc(C#N)ccc3[nH]2)c2cc[nH]c12 (single isomer, unassigned; (-)) [5-E b) (−), (−)-2-(1-amino-1-(5-(difluoromethoxy)-7-methyl-1H-indol-4-yl)ethyl)-1H-benzo[d]imidazole-5-carbonitrile]	40
CNC(c1nc2cc(C#N)ccc2[nH]1)(c1c(C2CC2)cc(C)c2[nH]ccc12)C(F)(F)F (single isomer, unassigned; (-)) [107-E b) (−), (−)-2-(1-(5-cyclopropyl-7-methyl-1H-indol-4-yl)-2,2,2-trifluoro-1-(methylamino)ethyl)-1H-benzo[d]imidazole-5-carbonitrile]	3
CCCc1cc(C)c2[nH]ccc2c1C(C)(O)c1nc2cc(C#N)ccc2[nH]1 (racemic) [79-B a) 2nd compound, (±)-2-(1-hydroxy-1-(7-methyl-5-propyl-1H-indol-4-yl)ethyl)-1H-benzo[d]imidazole-5-carbonitrile]	150
Cc1cc(C)c2[nH]ccc2c1C(C)c1nc2cc(C#N)ccc2[nH]1 (racemic) [Example 75-D, (±)-2-(1-(5,7-Dimethyl-1H-indol-4-yl)ethyl)-1H-benzo[d]imidazole-5-carbonitrile]	470
CNC(C)(c1nc2cc(C#N)ccc2[nH]1)c1c(OC)cc(C)c2[nH]ccc12 (single isomer, unassigned; (+)) [42-D b) (+), (+)-2-(1-(5-methoxy-7-methyl-1H-indol-4-yl)-1-(methylamino)ethyl)-1H-benzo[d]imidazole-5-carbonitrile]	130
COc1cc(C)c2[nH]ccc2c1C(OC)(c1nc2cc(C#N)ccc2[nH]1)C(F)(F)F (single isomer, unassigned; (+)) [34-B b) (+), (+)-2-(2,2,2-trifluoro-1-methoxy-1-(5-methoxy-7-methyl-1H-indol-4-yl)ethyl)-1H-benzo[d]imidazole-5-carbonitrile]	50
Cc1cc(C)c2[nH]ccc2c1C(O)c1nc2c(C)c(C#N)ccc2[nH]1 (single isomer, unassigned; (+)) [67-G b) (+), (+)-2-((5,7-dimethyl-1H-indol-4-yl)(hydroxy)methyl)-4-methyl-1H-benzo[d]imidazole-5-carbonitrile]	2980
COc1cc(C)c2[nH]ccc2c1C(C)(O)c1nc2cc(C#N)ccc2[nH]1 (racemic) [26-C b) (+), (+)-2-(1-hydroxy-1-(5-methoxy-7-methyl-1H-indol-4-yl)ethyl)-1H-benzo[d]imidazole-5-carbonitrile]	50
Cc1cc(OCC(N)=O)c(C(C)(O)c2nc3cc(C#N)ccc3[nH]2)c2cc[nH]c12 (racemic) [Example 31-C, (±)-2-((4-(1-(5-Cyano-1H-benzo[d]imidazol-2-yl)-1-hydroxyethyl)-7-methyl-1H-indol-5-yl)oxy)acetamide]	430
COc1cc(C)c2[nH]ccc2c1C(O)c1cc2ccc(C#N)cc2[nH]1 (racemic) [Example 135-C, (±)-2-(hydroxy(5-methoxy-7-methyl-1H-indol-4-yl)methyl)-1H-indole-6-carbonitrile]	20
